# Measured values published in patent US20220296613A1, “FOOD-INDEPENDENT DOSING OF CV-10155 TO TREAT GABAA DISORDERS” (priority 2021, published 2022).
# Several values for one entry are separate records, joined by “and”; a condition that tells them apart may be missing. Equal entries are not always repeated.
# What was measured:
# [1] = clinical; conditions: human, in vivo, 60 mg
# [2] = target: α1β2γ2 GABAA receptors (Homo sapiens, UniProt P14867+P47870); test: Synchropatch electrophysiology, potentiation of synaptic GABAA receptors; type: cell-based
# α1β2γ2 GABAA receptors, sequence (P14867 28-456): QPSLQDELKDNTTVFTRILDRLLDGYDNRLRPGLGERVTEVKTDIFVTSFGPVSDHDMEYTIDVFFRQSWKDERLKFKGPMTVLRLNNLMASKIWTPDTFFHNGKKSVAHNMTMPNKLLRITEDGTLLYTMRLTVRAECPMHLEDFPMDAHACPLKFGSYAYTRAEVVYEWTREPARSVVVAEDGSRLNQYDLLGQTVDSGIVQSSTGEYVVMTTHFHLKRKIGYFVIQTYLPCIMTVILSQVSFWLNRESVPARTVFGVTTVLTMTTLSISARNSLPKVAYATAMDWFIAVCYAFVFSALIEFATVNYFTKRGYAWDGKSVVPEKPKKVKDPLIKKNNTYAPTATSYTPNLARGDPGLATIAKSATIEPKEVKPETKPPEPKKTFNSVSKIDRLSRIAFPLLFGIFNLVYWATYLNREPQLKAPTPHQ
# α1β2γ2 GABAA receptors, sequence (P47870 25-512 limits assumed): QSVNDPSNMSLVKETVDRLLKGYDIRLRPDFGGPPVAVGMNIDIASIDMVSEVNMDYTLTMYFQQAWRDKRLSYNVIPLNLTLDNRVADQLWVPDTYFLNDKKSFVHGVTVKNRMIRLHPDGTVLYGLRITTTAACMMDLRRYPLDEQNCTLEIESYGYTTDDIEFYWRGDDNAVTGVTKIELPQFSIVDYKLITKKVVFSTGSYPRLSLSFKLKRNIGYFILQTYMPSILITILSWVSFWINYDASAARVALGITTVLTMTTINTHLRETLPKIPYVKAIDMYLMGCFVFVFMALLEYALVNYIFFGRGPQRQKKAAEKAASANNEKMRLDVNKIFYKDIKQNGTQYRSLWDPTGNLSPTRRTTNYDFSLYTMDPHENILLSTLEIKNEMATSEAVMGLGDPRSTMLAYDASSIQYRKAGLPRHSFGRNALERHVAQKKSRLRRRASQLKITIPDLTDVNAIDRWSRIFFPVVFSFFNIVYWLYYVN
# α1β2γ2 GABAA receptors, sequence (P18507 40-475 partner): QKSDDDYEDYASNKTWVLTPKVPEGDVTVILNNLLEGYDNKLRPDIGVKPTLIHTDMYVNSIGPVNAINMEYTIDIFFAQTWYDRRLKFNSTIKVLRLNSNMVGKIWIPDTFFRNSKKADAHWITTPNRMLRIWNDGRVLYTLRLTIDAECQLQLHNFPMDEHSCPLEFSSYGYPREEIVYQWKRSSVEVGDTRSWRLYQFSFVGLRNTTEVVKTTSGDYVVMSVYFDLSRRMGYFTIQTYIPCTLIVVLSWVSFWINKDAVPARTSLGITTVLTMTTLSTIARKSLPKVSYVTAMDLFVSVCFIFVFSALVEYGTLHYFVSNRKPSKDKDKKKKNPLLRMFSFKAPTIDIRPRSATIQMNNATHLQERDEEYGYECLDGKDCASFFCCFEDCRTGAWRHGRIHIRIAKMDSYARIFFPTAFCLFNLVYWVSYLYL
# [3] = target: α4β3δ GABAA receptors (Homo sapiens, UniProt P28472+P48169); test: Synchropatch electrophysiology, potentiation of extra synaptic GABAA receptors; type: cell-based
# α4β3δ GABAA receptors, sequence (P48169 36-554): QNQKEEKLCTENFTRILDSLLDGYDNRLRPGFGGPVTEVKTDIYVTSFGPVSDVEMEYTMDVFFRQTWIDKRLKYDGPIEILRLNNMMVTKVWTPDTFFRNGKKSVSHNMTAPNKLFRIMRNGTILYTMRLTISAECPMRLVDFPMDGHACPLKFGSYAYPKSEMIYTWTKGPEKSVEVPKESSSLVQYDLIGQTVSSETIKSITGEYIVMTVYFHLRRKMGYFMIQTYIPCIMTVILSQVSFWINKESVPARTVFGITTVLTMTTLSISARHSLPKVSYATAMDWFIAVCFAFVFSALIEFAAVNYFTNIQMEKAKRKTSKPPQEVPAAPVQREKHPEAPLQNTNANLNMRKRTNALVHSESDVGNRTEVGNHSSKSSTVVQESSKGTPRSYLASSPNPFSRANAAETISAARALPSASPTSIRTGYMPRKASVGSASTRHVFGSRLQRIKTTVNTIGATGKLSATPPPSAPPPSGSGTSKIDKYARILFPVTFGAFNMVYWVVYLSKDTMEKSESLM
# α4β3δ GABAA receptors, sequence (P28472 26-473): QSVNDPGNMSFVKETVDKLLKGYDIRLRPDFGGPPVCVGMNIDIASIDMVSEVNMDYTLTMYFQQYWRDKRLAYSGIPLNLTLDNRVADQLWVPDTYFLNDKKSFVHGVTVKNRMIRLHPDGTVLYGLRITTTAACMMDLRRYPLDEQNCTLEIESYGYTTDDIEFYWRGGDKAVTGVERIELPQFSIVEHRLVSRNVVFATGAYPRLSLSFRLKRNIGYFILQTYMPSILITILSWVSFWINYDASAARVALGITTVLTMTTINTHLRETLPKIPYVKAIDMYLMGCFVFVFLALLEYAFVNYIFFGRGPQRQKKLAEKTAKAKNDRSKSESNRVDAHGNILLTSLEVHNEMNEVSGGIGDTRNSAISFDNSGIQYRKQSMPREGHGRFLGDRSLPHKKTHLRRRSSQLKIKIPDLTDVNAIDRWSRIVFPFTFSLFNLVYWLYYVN
# α4β3δ GABAA receptors, sequence (O14764 25-452 partner): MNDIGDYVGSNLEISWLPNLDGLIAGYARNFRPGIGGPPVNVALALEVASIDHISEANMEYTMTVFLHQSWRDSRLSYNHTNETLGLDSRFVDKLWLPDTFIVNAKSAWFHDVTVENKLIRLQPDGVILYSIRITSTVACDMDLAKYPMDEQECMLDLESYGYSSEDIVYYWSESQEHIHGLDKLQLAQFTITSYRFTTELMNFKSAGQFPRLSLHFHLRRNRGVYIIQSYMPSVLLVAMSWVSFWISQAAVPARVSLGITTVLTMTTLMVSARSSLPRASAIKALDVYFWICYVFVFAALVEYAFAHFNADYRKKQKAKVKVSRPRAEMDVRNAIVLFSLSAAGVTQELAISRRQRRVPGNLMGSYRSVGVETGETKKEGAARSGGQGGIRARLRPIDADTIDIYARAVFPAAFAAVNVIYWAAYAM
# [4] = in vivo; conditions: beagle, dog, iv, 1 mg/kg
# [5] = system: models of depression, anxiety, seizure, and EEG; test: Preclinical rodent models of seizure, anxiety, depression and EEG biomarker (overall); type: in vivo
# [6] = clinical; conditions: human, in vivo
# [7] = system: sleep states; test: Sleep states by electroencephalogram (EEG) in rats; type: in vivo
# Method: The effect of CV-10155 on various sleep states was analyzed in rats. Rats were given various doses of CV-10155, and sleep states were analyzed by electroencephalogram (EEG).
# FIG. 17 is a hypnogram showing the percentage of time spent in different sleep states by rats given drug vehicle. Purple bars represent REM sleep; green bars represent non-REM sleep; blue bars represent quiet waking; and red bars represent active waking.
# FIG. 18 is a hypnogram showing the percentage of time spent in different sleep states by rats given 1 mg/kg CV-10155. Purple bars represent REM sleep; green bars represent non-REM sleep; blue bars represent quiet waking; and red bars represent active waking.
# FIG. 19 is a hypnogram showing the percentage of time spent in different sleep states by rats given 3 mg/kg CV-10155. Purple bars represent REM sleep; green bars represent non-REM sleep; blue bars represent quiet waking; and red bars represent active waking.
# FIG. 20 is a hypnogram showing the percentage of time spent in different sleep states by rats given 6 mg/kg CV-10155. Purple bars represent REM sleep; green bars represent non-REM sleep; blue bars represent quiet waking; and red bars represent active waking.
# FIG. 21 is a hypnogram showing the percentage of time spent in different sleep states by rats given 10 mg/kg CV-10155. […]
# [8] = Pharmacokinetics of CV-10155 solid dosage forms in fed or fasted beagle dogs; conditions: for AUC(0-t): AUCLast; for MRT inf: MRTInf; for half-life: T½
# [9] = HPMC-AS formulation, 10 mg PO, fed cohort, individual dogs
# [10] = HPMC-AS formulation, 10 mg PO, fed cohort, mean of 4 dogs
# [11] = HPMC-AS formulation, 10 mg PO, pentagastrin/fasted cohort, individual dogs
# [12] = HPMC-AS formulation, 10 mg PO, pentagastrin/fasted cohort, mean of 4 dogs
# [13] = HPMC-AS formulation, 30 mg PO, pentagastrin/fasted cohort, individual dogs
# [14] = HPMC-AS formulation, 30 mg PO, pentagastrin/fasted cohort, mean of 4 dogs
# [15] = male, beagle, dog, plasma, po, 10 mg, HPMC-AS formulation, 10 mg PO, fed cohort, mean of 4 dogs
# [16] = male, beagle, dog, plasma, po, 10 mg, HPMC-AS formulation, 10 mg PO, pentagastrin/fasted cohort, mean of 4 dogs
# [17] = male, beagle, dog, plasma, po, 10 mg, HPMC-AS formulation, 10 mg PO, fed cohort, individual dogs
# [18] = male, beagle, dog, plasma, po, 30 mg, HPMC-AS formulation, 30 mg PO, pentagastrin/fasted cohort, mean of 4 dogs
# [19] = male, beagle, dog, plasma, po, 30 mg, HPMC-AS formulation, 30 mg PO, pentagastrin/fasted cohort, individual dogs
smiles,measurement,setting,value
"C[C@@]1(O)CC[C@@]2(C)[C@@H](CC[C@@H]3[C@@H]2CC[C@]2(C)[C@@H](C(=O)Cn4cc(C#N)cn4)CC[C@@H]32)C1 [CV-10155, 1-[2-[(3R,5S,8R,9S,10S,13S,14S,17S)-3-hydroxy-3,10,13-trimethyl-1,2,4,5,6,7,8,9,11,12,14,15,16,17-tetradecahydrocyclopenta[a]phenanthren-17-yl]-2-oxoethyl]pyrazole-4-carbonitrile]",AUC,[1],2900 ng·h/mL
same,Cmax,[1],253 ng/mL
same,Tmax,[1],3 h
same,half-life,[1],34.5 h
same,EC50,[2],207 nM
same,Emax,"[2]; α1β2γ2 Synaptic receptors, Synchropatch electrophysiology, read-out: Emax - efficacy: % of potentiation",586%
same,EC50,[3],165 nM
same,fold higher efficiency at extra synaptic vs. synaptic channels,[3]; α4β3δ vs α1β2γ2,3 fold
same,Vd,[4],1.92 L/kg
same,clearance,[4],2.17 mL/min/kg
same,half-life,[4],13.9 h
same,dose from which robust efficacy was observed,[5]; most rodent models of seizure,≥ 3 mg/kg
same,minimal effective dose (MED),[5]; rodent models of seizure,1 mg/kg
same,AUC(0-inf),[6]; 135 mg,3660 ng·h/mL
same,Cmax,[6]; 135 mg,333 ng/mL
same,Tmax,[6]; 135 mg,2.83 h
same,half-life,[6]; 135 mg,25 h
same,Tmax,[6]; po,2 to 4 h
same,half-life,[6]; po,24 to 26 h
same,dose producing an increase in non-REM sleep,"[7]; EEG, 1, 3, 6, 10 mg/kg tested",≥ 3 mg/kg
same,target engagement (EEG),[7]; within well-tolerated and efficacious dose ranges,dose-dependent target engagement
same,dose proportionality of AUC and Cmax,"human, in vivo, po",dose-proportional increase
same,"MTD, single ascending dose (SAD)",humans,ETX-155 135 mg SAD MTD
same,dose-limiting adverse event,humans,Ataxia
same,effect of food consumption on absorption,"humans, oral 30 mg, fed vs fasted",no clinically meaningful effect
same,adverse events observed,"humans, single oral dose, 200 mg","ataxia, tremor and tachycardia"
same,inter-subject variability (CV) of AUC and Cmax,"humans, single oral dose, 5-200 mg dose range",≤ 30%
same,dose-limiting adverse events,"humans, single oral dose, range of 5-135 mg",No dose-limiting adverse events were observed
same,most common adverse events,"humans, single oral dose, mild to moderate, only observed at the highest doses",Dizziness and somnolence
same,AUCExtr,[8]; [9],23.1% and 21.3% and 22.0% and 23.4%
same,AUCInf,[8]; [9],5047 ng·h/mL and 2440 ng·h/mL and 2105 ng·h/mL and 3712 ng·h/mL
same,AUCInf/D,[8]; [9],5602 kg·ng·h/mL/mg and 2929 kg·ng·h/mL/mg and 2273 kg·ng·h/mL/mg and 4084 kg·ng·h/mL/mg
same,AUCLast,[8]; [9],3882 ng·h/mL and 1919 ng·h/mL and 1641 ng·h/mL and 2845 ng·h/mL
same,Cmax,[8]; [9],512 ng/mL and 334 ng/mL and 273 ng/mL and 649 ng/mL
same,F,[8]; [9],71.6% and 38.3% and 29.4% and 52.0%
same,MRTInf,[8]; [9],14.8 h and 15.0 h and 15.5 h
same,T½,[8]; [9],12.5 h and 12.2 h and 15.0 h
same,AUCExtr,[8]; [10],22.5%
same,AUCInf/D,[8]; [10],3722 kg·ng·h/mL/mg
same,F,[8]; [10],47.8%
same,AUCExtr,[8]; [11],20.4% and 14.1% and 47.1% and 17.9%
same,AUCInf,[8]; [11],2465 ng·h/mL and 2612 ng·h/mL
same,AUCInf/D,[8]; [11],2762 kg·ng·h/mL/mg and 2441 kg·ng·h/mL/mg and 3314 kg·ng·h/mL/mg and 2821 kg·ng·h/mL/mg
same,AUCLast,[8]; [11],2118 ng·h/mL and 1754 ng·h/mL and 2145 ng·h/mL
same,Cmax,[8]; [11],340 ng/mL and 183 ng/mL and 217 ng/mL
same,F,[8]; [11],36.5% and 34.8% and 29.1% and 38.5%
same,MRTInf,[8]; [11],14.8 h and 11.6 h and 33.6 h and 13.6 h
same,Tmax,[8]; [11],1 h
same,T½,[8]; [11],11.1 h and 8.84 h and 25.7 h and 9.66 h
same,AUCExtr,[8]; [12],24.8%
same,AUCInf/D,[8]; [12],2834 kg·ng·h/mL/mg
same,F,[8]; [12],34.7%
same,AUCExtr,[8]; [13],30.3% and 27.1% and 19.4% and 24.4%
same,AUCInf,[8]; [13],12588 ng·h/mL and 8620 ng·h/mL and 4072 ng·h/mL and 7783 ng·h/mL
same,AUCInf/D,[8]; [13],4995 kg·ng·h/mL/mg and 3157 kg·ng·h/mL/mg and 1572 kg·ng·h/mL/mg and 2982 kg·ng·h/mL/mg
same,AUCLast,[8]; [13],8769 ng·h/mL and 6285 ng·h/mL and 3281 ng·h/mL and 5884 ng·h/mL
same,Cmax,[8]; [13],1440 ng/mL and 954 ng/mL and 302 ng/mL and 993 ng/mL
same,F,[8]; [13],57.8% and 38.3% and 21.1% and 37.5%
same,MRTInf,[8]; [13],18.1 h and 14.4 h and 16.2 h
same,T½,[8]; [13],13.6 h and 9.98 h and 12.3 h
same,AUCExtr,[8]; [14],25.3%
same,AUCInf/D,[8]; [14],3177 kg·ng·h/mL/mg
same,F,[8]; [14],38.6%
same,AUC(0-inf),"[8]; male, beagle, dog, in vivo, po, 10 mg",3310 ng·h/mL
same,AUC(0-inf),"[8]; male, beagle, dog, plasma, po, 10 mg, AUCInf, HPMC-AS formulation, 10 mg PO, fed cohort, mean of 4 dogs",3330 ng·h/mL
same,AUC(0-inf),"[8]; male, beagle, dog, plasma, po, 10 mg, AUCInf, HPMC-AS formulation, 10 mg PO, pentagastrin/fasted cohort, individual dogs",2630 ng·h/mL
same,AUC(0-inf),"[8]; male, beagle, dog, plasma, po, 10 mg, AUCInf, HPMC-AS formulation, 10 mg PO, pentagastrin/fasted cohort, mean of 4 dogs",2760 ng·h/mL
same,AUC(0-t),[8]; [15],2570 ng·h/mL
same,AUC(0-t),"[8]; male, beagle, dog, plasma, po, 10 mg, HPMC-AS formulation, 10 mg PO, pentagastrin/fasted cohort, individual dogs",2090 ng·h/mL
same,AUC(0-t),[8]; [16],2030 ng·h/mL
same,Cmax,"[8]; male, beagle, dog, plasma, po, 10 mg, Cmax, HPMC-AS formulation, 10 mg PO, fed cohort, mean of 4 dogs",442 ng/mL
same,Cmax,"[8]; male, beagle, dog, plasma, po, 10 mg, Cmax, HPMC-AS formulation, 10 mg PO, pentagastrin/fasted cohort, individual dogs",222 ng/mL
same,Cmax,"[8]; male, beagle, dog, plasma, po, 10 mg, Cmax, HPMC-AS formulation, 10 mg PO, pentagastrin/fasted cohort, mean of 4 dogs",241 ng/mL
same,MRT inf,[8]; [17],15.7 h
same,MRT inf,[8]; [15],15.3 h
same,MRT inf,[8]; [16],18.4 h
same,Tmax,"[8]; male, beagle, dog, plasma, po, 10 mg, Tmax, HPMC-AS formulation, 10 mg PO, fed cohort, mean of 4 dogs",1.13 h
same,Tmax,"[8]; male, beagle, dog, plasma, po, 10 mg, Tmax, HPMC-AS formulation, 10 mg PO, pentagastrin/fasted cohort, individual dogs",2 h
same,Tmax,"[8]; male, beagle, dog, plasma, po, 10 mg, Tmax, HPMC-AS formulation, 10 mg PO, pentagastrin/fasted cohort, mean of 4 dogs",1.5 h
same,half-life,[8]; [17],12.6 h
same,half-life,[8]; [15],13.1 h
same,half-life,[8]; [16],13.8 h
same,AUC(0-inf),"[8]; male, beagle, dog, plasma, po, 30 mg, AUCInf, HPMC-AS formulation, 30 mg PO, pentagastrin/fasted cohort, mean of 4 dogs",8270 ng·h/mL
same,AUC(0-t),[8]; [18],6060 ng·h/mL
same,Cmax,"[8]; male, beagle, dog, plasma, po, 30 mg, Cmax, HPMC-AS formulation, 30 mg PO, pentagastrin/fasted cohort, mean of 4 dogs",922 ng/mL
same,MRT inf,[8]; [19],20 h
same,MRT inf,[8]; [18],17.2 h
same,Tmax,"[8]; male, beagle, dog, plasma, po, 30 mg, Tmax, HPMC-AS formulation, 30 mg PO, pentagastrin/fasted cohort, mean of 4 dogs",1 h
same,half-life,[8]; [19],17.8 h
same,half-life,[8]; [18],13.4 h
